Assay results: ChEMBL document CHEMBL3085706, “Scorpiand-like azamacrocycles prevent the chronic establishment of Trypanosoma cruzi in a murine model” (Eur J Med Chem, 2013)
One block for each compound: values may come before it. Active and inactive are the calls of the source. No cut-off for these calls is given here.

What was measured:
Vero = experiment: Cytotoxicity against African green monkey Vero cells after 72 hrs by flow cytometric analysis; assay type: cell-based; settings: Chlorocebus sabaeus
[1] = Selectivity index, ratio of IC50 for African green monkey Vero cells to IC50 for extracellular epimastigote form of Trypanosoma cruzi IRHOD/CO/2008/SN3; assay type: toxicity, cell-based; settings: read-out: Ratio IC50
Trypanosoma cruzi [2] = experiment: Trypanocidal activity against intracellular amastigote form of Trypanosoma cruzi IRHOD/CO/2008/SN3 infected in African green monkey Vero cells after 72 hrs by Giemsa staining assay; assay type: functional, organism-based; settings: IRHOD/CO/2008/SN3, Vero
[3] = Selectivity index, ratio of IC50 for African green monkey Vero cells to IC50 for extracellular trypomastigote form of Trypanosoma cruzi IRHOD/CO/2008/SN3; assay type: toxicity, cell-based; settings: read-out: Ratio IC50
[4] = Selectivity index, ratio of IC50 for African green monkey Vero cells to IC50 for intracellular amastigote form of Trypanosoma cruzi IRHOD/CO/2008/SN3; assay type: toxicity, cell-based; settings: read-out: Ratio IC50
Trypanosoma cruzi [5] = experiment: Trypanocidal activity against extracellular trypomastigote form of Trypanosoma cruzi IRHOD/CO/2008/SN3 after 24 hrs by Neubauer hemocytometric analysis; assay type: functional, organism-based; settings: IRHOD/CO/2008/SN3, 24 h
Trypanosoma cruzi [6] = experiment: Trypanocidal activity against extracellular epimastigote form of Trypanosoma cruzi IRHOD/CO/2008/SN3 after 72 hrs by Neubauer hemocytometric analysis; assay type: functional, organism-based; settings: IRHOD/CO/2008/SN3, 72 h
Trypanosoma cruzi [7] = experiment: (§1) Trypanocidal activity against amastigote form of Trypanosoma cruzi IRHOD/CO/2008/SN3 infected in African green monkey Vero cells assessed as inhibition of amastigotes load per cell at IC25 preincubated for 12 hrs followed by compound washout measured after 10 days by Giemsa staining-based microscopic analysis relative to control; assay type: functional
Trypanosoma cruzi [8] = experiment: Trypanocidal activity against bloodstream trypomastigote form of Trypanosoma cruzi IRHOD/CO/2008/SN3 infected in BALB/c mouse assessed as reduction of anti-parasitic Ig-G level in serum at 5 mg/kg/day, ip administered for 5 days measured over 40 to 120 days post-infection by ELISA; assay type: functional, organism-based
Trypanosoma cruzi [9] = experiment: Trypanocidal activity against epimastigote form of Trypanosoma cruzi IRHOD/CO/2008/SN3 assessed as inhibition of lactate excretion at IC25 after 96 hrs by NMR spectra analysis; assay type: functional, organism-based
Trypanosoma cruzi [10] = experiment: Trypanocidal activity against bloodstream trypomastigote form of Trypanosoma cruzi IRHOD/CO/2008/SN3 infected in BALB/c mouse assessed as reduction of circulating parasite burden at 5 mg/kg, ip administered for 5 to 10 days measured 22 to 60 days post-infection by Neubauer hemocytometric analysis; assay type: functional, organism-based; parameters: dose 5 mg/kg
Trypanosoma cruzi [11] = experiment: Trypanocidal activity against epimastigote form of Trypanosoma cruzi IRHOD/CO/2008/SN3 assessed as induction of ethanol production at IC25 after 96 hrs by NMR spectra analysis; assay type: functional, organism-based
Trypanosoma cruzi [12] = experiment: Trypanocidal activity against trypomastigote form of Trypanosoma cruzi IRHOD/CO/2008/SN3 infected in African green monkey Vero cells assessed as inhibition of trypomastigotes released in culture medium at IC25 relative to control; assay type: functional
[13] = Inhibition of Fe-SOD in Trypanosoma cruzi IRHOD/CO/2008/SN3 epimastigotes assessed as reduction of nitrobluetetrazolium measured for 10 mins by spectrophotometric analysis
[14] = Inhibition of Escherichia coli Mn-SOD assessed as reduction of nitrobluetetrazolium measured for 10 mins by spectrophotometric analysis
Trypanosoma cruzi [15] = experiment: as §1, with “parasite infection rate” for “amastigotes load per cell”; assay type: functional
Trypanosoma cruzi [16] = experiment: Trypanocidal activity against epimastigote form of Trypanosoma cruzi IRHOD/CO/2008/SN3 assessed as inhibition of alanine excretion at IC25 after 96 hrs by NMR spectra analysis; assay type: functional, organism-based
Trypanosoma cruzi [17] = experiment: Trypanocidal activity against epimastigote form of Trypanosoma cruzi IRHOD/CO/2008/SN3 assessed as inhibition of acetate excretion at IC25 after 96 hrs by NMR spectra analysis; assay type: functional, organism-based
Trypanosoma cruzi [18] = experiment: Inhibition of Fe-SOD in Trypanosoma cruzi IRHOD/CO/2008/SN3 epimastigotes assessed as reduction of nitrobluetetrazolium at 12.5 to 25 uM measured for 10 mins by spectrophotometric analysis relative to control
Trypanosoma cruzi [19] = experiment: Trypanocidal activity against epimastigote form of Trypanosoma cruzi IRHOD/CO/2008/SN3 assessed as excessive dilation of kinetoplast at IC25 after 96 hrs by transmission electron microscopic analysis; assay type: functional, organism-based
Trypanosoma cruzi [20] = experiment: Trypanocidal activity against epimastigote form of Trypanosoma cruzi IRHOD/CO/2008/SN3 assessed as loss of plasma membrane integrity at IC25 after 96 hrs by transmission electron microscopic analysis; assay type: functional, organism-based
Trypanosoma cruzi [21] = experiment: Trypanocidal activity against epimastigote form of Trypanosoma cruzi IRHOD/CO/2008/SN3 assessed as lysis of epimastigotes at IC25 after 96 hrs by transmission electron microscopic analysis; assay type: functional, organism-based
Trypanosoma cruzi [22] = experiment: Trypanocidal activity against epimastigote form of Trypanosoma cruzi IRHOD/CO/2008/SN3 assessed as inhibition of succinate excretion at IC25 after 96 hrs by NMR spectra analysis; assay type: functional, organism-based
Trypanosoma cruzi [23] = experiment: Trypanocidal activity against epimastigote form of Trypanosoma cruzi IRHOD/CO/2008/SN3 assessed as cytoplasmic vacuolization and disintegration at IC25 after 96 hrs by transmission electron microscopic analysis; assay type: functional, organism-based
Trypanosoma cruzi [24] = experiment: Trypanocidal activity against epimastigote form of Trypanosoma cruzi IRHOD/CO/2008/SN3 assessed as empty mitochondria at IC25 after 96 hrs by transmission electron microscopic analysis; assay type: functional, organism-based
Mus musculus [25] = experiment: Hepatotoxicity in BALB/c mouse infected with bloodstream trypomastigote form of Trypanosoma cruzi IRHOD/CO/2008/SN3 assessed as centrilobular destruction of hepatic vein at 5 mg/kg/day, ip administered for 5 days measured 150 days post-infection by light microscopic analysis; assay type: toxicity, organism-based; parameters: route intraperitoneal; settings: in vivo, 3600 h
Mus musculus [26] = experiment: Hepatotoxicity in BALB/c mouse infected with bloodstream trypomastigote form of Trypanosoma cruzi IRHOD/CO/2008/SN3 assessed as presence of necrotic cells in portal space at 5 mg/kg/day, ip administered for 5 days measured 150 days post-infection by light microscopic analysis; assay type: toxicity, organism-based; parameters: route intraperitoneal; settings: in vivo, 3600 h
Trypanosoma cruzi [27] = experiment: (§2) Trypanocidal activity against bloodstream trypomastigote form of Trypanosoma cruzi IRHOD/CO/2008/SN3 infected in cyclophosphamide monohydrate-treated BALB/c immunosuppression mouse model assessed as reduction of parasite load in heart at 5 mg/kg/day, ip administered for 5 days measured 150 days post-infection by PCR analysis; assay type: functional, organism-based
Trypanosoma cruzi [28] = experiment: Trypanocidal activity against bloodstream trypomastigote form of Trypanosoma cruzi IRHOD/CO/2008/SN3 infected in BALB/c mouse assessed as reduction of parasite load in heart at 5 mg/kg/day, ip administered for 5 days measured 150 days post-infection by PCR analysis; assay type: functional, organism-based
Mus musculus [29] = experiment: Hepatotoxicity in BALB/c mouse infected with bloodstream trypomastigote form of Trypanosoma cruzi IRHOD/CO/2008/SN3 assessed as lymphocytic infiltration in portal tracts at 5 mg/kg/day, ip administered for 5 days measured 150 days post-infection by light microscopic analysis; assay type: toxicity, organism-based; parameters: route intraperitoneal; settings: in vivo, 3600 h
Trypanosoma cruzi [30] = experiment: Trypanocidal activity against epimastigote form of Trypanosoma cruzi IRHOD/CO/2008/SN3 assessed as dispersed cytoplasm at IC25 after 96 hrs by transmission electron microscopic analysis; assay type: functional, organism-based
Mus musculus [31] = experiment: Hepatotoxicity in BALB/c mouse infected with bloodstream trypomastigote form of Trypanosoma cruzi IRHOD/CO/2008/SN3 assessed as interstitial hemorrhage at 5 mg/kg/day, ip administered for 5 days measured 150 days post-infection by light microscopic analysis; assay type: toxicity, organism-based; parameters: route intraperitoneal; settings: in vivo, 3600 h
Trypanosoma cruzi [32] = experiment: as §2, with “reactivation” for “reduction”, “parasitemia level” for “parasite load in heart”, “(reference value: 91.7 %)” for “by PCR analysis”; assay type: functional; settings: route intraperitoneal
Trypanosoma cruzi [33] = experiment: as §2, with “liver” for “heart”; assay type: functional, organism-based
Mus musculus [34] = experiment: Hepatotoxicity in BALB/c mouse infected with bloodstream trypomastigote form of Trypanosoma cruzi IRHOD/CO/2008/SN3 assessed as vessels with thickened walls at 5 mg/kg/day, ip administered for 5 days measured 150 days post-infection by light microscopic analysis; assay type: toxicity, organism-based; parameters: route intraperitoneal; settings: in vivo
Trypanosoma cruzi [35] = experiment: Trypanocidal activity against epimastigote form of Trypanosoma cruzi IRHOD/CO/2008/SN3 assessed as abundant larger acidocalcisomes at IC25 after 96 hrs by transmission electron microscopic analysis; assay type: functional, organism-based
Mus musculus [36] = experiment: Hepatotoxicity in BALB/c mouse infected with bloodstream trypomastigote form of Trypanosoma cruzi IRHOD/CO/2008/SN3 assessed as hepatic destruction in portal space at 5 mg/kg/day, ip administered for 5 days measured 150 days post-infection by light microscopic analysis; assay type: toxicity, organism-based; parameters: route intraperitoneal; settings: in vivo, 3600 h
Mus musculus [37] = experiment: Hepatotoxicity in BALB/c mouse infected with bloodstream trypomastigote form of Trypanosoma cruzi IRHOD/CO/2008/SN3 assessed as granuloma with lymphocytic infiltrate at 5 mg/kg/day, ip administered for 5 days measured 150 days post-infection by light microscopic analysis; assay type: toxicity, organism-based; parameters: route intraperitoneal; settings: in vivo, 3600 h
Trypanosoma cruzi [38] = experiment: Trypanocidal activity against epimastigote form of Trypanosoma cruzi IRHOD/CO/2008/SN3 assessed as effect on succinate production at IC25 after 96 hrs by NMR spectra analysis; assay type: functional, organism-based
Trypanosoma cruzi [39] = experiment: Trypanocidal activity against epimastigote form of Trypanosoma cruzi IRHOD/CO/2008/SN3 assessed as appearance of large vacuoles at IC25 after 96 hrs by transmission electron microscopic analysis; assay type: functional, organism-based
Trypanosoma cruzi [40] = experiment: Trypanocidal activity against epimastigote form of Trypanosoma cruzi IRHOD/CO/2008/SN3 assessed as appearance of strongly electrondensed glycosomes at IC25 after 96 hrs by transmission electron microscopic analysis; assay type: functional, organism-based
Trypanosoma cruzi [41] = experiment: Trypanocidal activity against bloodstream trypomastigote form of Trypanosoma cruzi IRHOD/CO/2008/SN3 infected in cyclophosphamide monohydrate-treated BALB/c immunosuppression mouse model assessed as reduction of total anti-parasitic Ig-G level in serum at 5 mg/kg/day, ip administered for 5 days measured 150 days post-infection by ELISA; assay type: functional, organism-based
Trypanosoma cruzi [42] = experiment: Trypanocidal activity against bloodstream trypomastigote form of Trypanosoma cruzi IRHOD/CO/2008/SN3 infected in BALB/c mouse assessed as reduction of parasite load in liver at 5 mg/kg/day, ip administered for 5 days measured 150 days post-infection by PCR analysis; assay type: functional, organism-based
Mus musculus [43] = experiment: Hepatotoxicity in BALB/c mouse infected with bloodstream trypomastigote form of Trypanosoma cruzi IRHOD/CO/2008/SN3 assessed as delocalized hepatic destruction at 5 mg/kg/day, ip administered for 5 days measured 150 days post-infection by light microscopic analysis; assay type: toxicity, organism-based; parameters: route intraperitoneal; settings: in vivo, 3600 h

SMILES: c1cc2nc(c1)CNCCN(CCNCc1cccc3ccccc13)CCNC2
IC50 (Vero): 325 µM
selectivity ratio [1]: 31.2
IC50 (Trypanosoma cruzi [2]): 16.1 µM
selectivity ratio [3]: 16.7
selectivity ratio [4]: 20.2
IC50 (Trypanosoma cruzi [5]): 19.5 µM
IC50 (Trypanosoma cruzi [6]): 10 µM

IC50 [14]: 111 µM
inhibition (Trypanosoma cruzi [18]): 100%
SMILES: Br.NCCN1CCNCc2cccc(n2)CNCC1
IC50 (Vero): 270 µM
inhibition (INH) (Trypanosoma cruzi [7]): 46%
selectivity ratio [1]: 41.4
Activity (Trypanosoma cruzi [8]): Active
IC50 (Trypanosoma cruzi [2]): 7.8 µM
inhibition (Trypanosoma cruzi [9]): Active
Activity (Trypanosoma cruzi [10]): Active
Activity (Trypanosoma cruzi [11]): Active
selectivity ratio [3]: 16.5
selectivity ratio [4]: 34.5
inhibition (INH) (Trypanosoma cruzi [12]): 58%
IC50 [13]: 12.5 µM
inhibition (INH) (Trypanosoma cruzi [15]): 73%
IC50 (Trypanosoma cruzi [5]): 16.3 µM
inhibition (Trypanosoma cruzi [16]): Active
inhibition (Trypanosoma cruzi [17]): Active
Activity (Trypanosoma cruzi [19]): Active
Activity (Trypanosoma cruzi [20]): Active
IC50 (Trypanosoma cruzi [6]): 6.5 µM
Activity (Trypanosoma cruzi [21]): Active
inhibition (Trypanosoma cruzi [22]): Active
Activity (Trypanosoma cruzi [23]): Active

SMILES: Cl.c1cncc(CNCCN2CCNCc3cccc(n3)CNCC2)c1
IC50 (Vero): 425 µM
inhibition (INH) (Trypanosoma cruzi [7]): 69%
Activity (Trypanosoma cruzi [24]): Active
selectivity ratio [1]: 52.7
Activity (Trypanosoma cruzi [8]): Active
IC50 (Trypanosoma cruzi [2]): 9.5 µM
Activity (Mus musculus [25]): Non-toxic
Activity (Mus musculus [26]): Non-toxic
Activity (Trypanosoma cruzi [27]): Active
Activity (Trypanosoma cruzi [28]): Active
inhibition (Trypanosoma cruzi [9]): Active
Activity (Mus musculus [29]): Toxic
Activity (Trypanosoma cruzi [30]): Active
Activity (Trypanosoma cruzi [10]): Active
Activity (Trypanosoma cruzi [11]): Active
selectivity ratio [3]: 21.6
Activity (Mus musculus [31]): Non-toxic
selectivity ratio [4]: 44.8
Activity (Trypanosoma cruzi [32]): 5.6%
inhibition (INH) (Trypanosoma cruzi [12]): 89%
IC50 [13]: 10.8 µM
IC50 [14]: 63.6 µM
inhibition (INH) (Trypanosoma cruzi [15]): 86%
IC50 (Trypanosoma cruzi [5]): 19.7 µM
inhibition (Trypanosoma cruzi [16]): Active
Activity (Trypanosoma cruzi [33]): Active
Activity (Mus musculus [34]): Toxic
inhibition (Trypanosoma cruzi [17]): Active
Activity (Trypanosoma cruzi [35]): Active
inhibition (Trypanosoma cruzi [18]): 100%
Activity (Mus musculus [36]): Non-toxic
Activity (Mus musculus [37]): Toxic
IC50 (Trypanosoma cruzi [6]): 8 µM
Activity (Trypanosoma cruzi [38]): inactive
Activity (Trypanosoma cruzi [39]): Active
Activity (Trypanosoma cruzi [40]): Active
Activity (Trypanosoma cruzi [41]): Active
Activity (Trypanosoma cruzi [42]): Active
Activity (Mus musculus [43]): Toxic
